According to US20180099931A1 (AbbVie S.à.r.l., priority 2016, published 2018):
Read-outs that look alike come from different tables or passages of the source.

Target: T1, F508delCFTR (Homo sapiens, UniProt P13569, DEL508-508)
T1 construct: expressed in transfected cells; host or cells: CFBE41o- human lung-derived epithelial cells (CFBE4lo-F508delCFTR-HRP), doxycycline-inducible
Assay: Cell Surface Expression-Horse Radish Peroxidase (CSE-HRP) Assay;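 for Maximum % activity (with co-corrector): co-corrector and positive control are both the same reference corrector at 2 µM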;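 for Maximum % activity (without co-corrector): percent of the 2 µM on-plate positive control corrector response above DMSO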
Format: cell-based
Conditions: for Maximum % activity (with co-corrector) / Emax: maximum at any tested concentration, normalized to on-plate positive control; for Emax: read-out: Maximum % activity (without co-corrector)

[1] = test compound without co-corrector, read-out: EC50 (without co-corrector)
[2] = with co-corrector (2 μM of 3-[(2R,4R)-4-({[1-(2,2-difluoro-1,3-benzodioxol-5-yl)cyclopropyl]carbonyl}amino)-7-methoxy-3,4-dihydro-2H-chromen-2-yl]benzoic acid), read-out: EC50 (with co-corrector)
[3] = CSE-HRP, test compound without co-corrector, read-out: EC50 (without co-corrector)
[4] = CSE-HRP, with co-corrector (2 μM of 3-[(2R,4R)-4-({[1-(2,2-difluoro-1,3-benzodioxol-5-yl)cyclopropyl]carbonyl}amino)-7-methoxy-3,4-dihydro-2H-chromen-2-yl]benzoic acid), read-out: EC50 (with co-corrector)
[5] = CSE-HRP, with co-corrector (2 μM)
[6] = test compound without co-corrector
[7] = with co-corrector (2 μM of 3-[(2R,4R)-4-({[1-(2,2-difluoro-1,3-benzodioxol-5-yl)cyclopropyl]carbonyl}amino)-7-methoxy-3,4-dihydro-2H-chromen-2-yl]benzoic acid)

T1 sequence (P13569 with tags, fused parts or gaps DEL508-508): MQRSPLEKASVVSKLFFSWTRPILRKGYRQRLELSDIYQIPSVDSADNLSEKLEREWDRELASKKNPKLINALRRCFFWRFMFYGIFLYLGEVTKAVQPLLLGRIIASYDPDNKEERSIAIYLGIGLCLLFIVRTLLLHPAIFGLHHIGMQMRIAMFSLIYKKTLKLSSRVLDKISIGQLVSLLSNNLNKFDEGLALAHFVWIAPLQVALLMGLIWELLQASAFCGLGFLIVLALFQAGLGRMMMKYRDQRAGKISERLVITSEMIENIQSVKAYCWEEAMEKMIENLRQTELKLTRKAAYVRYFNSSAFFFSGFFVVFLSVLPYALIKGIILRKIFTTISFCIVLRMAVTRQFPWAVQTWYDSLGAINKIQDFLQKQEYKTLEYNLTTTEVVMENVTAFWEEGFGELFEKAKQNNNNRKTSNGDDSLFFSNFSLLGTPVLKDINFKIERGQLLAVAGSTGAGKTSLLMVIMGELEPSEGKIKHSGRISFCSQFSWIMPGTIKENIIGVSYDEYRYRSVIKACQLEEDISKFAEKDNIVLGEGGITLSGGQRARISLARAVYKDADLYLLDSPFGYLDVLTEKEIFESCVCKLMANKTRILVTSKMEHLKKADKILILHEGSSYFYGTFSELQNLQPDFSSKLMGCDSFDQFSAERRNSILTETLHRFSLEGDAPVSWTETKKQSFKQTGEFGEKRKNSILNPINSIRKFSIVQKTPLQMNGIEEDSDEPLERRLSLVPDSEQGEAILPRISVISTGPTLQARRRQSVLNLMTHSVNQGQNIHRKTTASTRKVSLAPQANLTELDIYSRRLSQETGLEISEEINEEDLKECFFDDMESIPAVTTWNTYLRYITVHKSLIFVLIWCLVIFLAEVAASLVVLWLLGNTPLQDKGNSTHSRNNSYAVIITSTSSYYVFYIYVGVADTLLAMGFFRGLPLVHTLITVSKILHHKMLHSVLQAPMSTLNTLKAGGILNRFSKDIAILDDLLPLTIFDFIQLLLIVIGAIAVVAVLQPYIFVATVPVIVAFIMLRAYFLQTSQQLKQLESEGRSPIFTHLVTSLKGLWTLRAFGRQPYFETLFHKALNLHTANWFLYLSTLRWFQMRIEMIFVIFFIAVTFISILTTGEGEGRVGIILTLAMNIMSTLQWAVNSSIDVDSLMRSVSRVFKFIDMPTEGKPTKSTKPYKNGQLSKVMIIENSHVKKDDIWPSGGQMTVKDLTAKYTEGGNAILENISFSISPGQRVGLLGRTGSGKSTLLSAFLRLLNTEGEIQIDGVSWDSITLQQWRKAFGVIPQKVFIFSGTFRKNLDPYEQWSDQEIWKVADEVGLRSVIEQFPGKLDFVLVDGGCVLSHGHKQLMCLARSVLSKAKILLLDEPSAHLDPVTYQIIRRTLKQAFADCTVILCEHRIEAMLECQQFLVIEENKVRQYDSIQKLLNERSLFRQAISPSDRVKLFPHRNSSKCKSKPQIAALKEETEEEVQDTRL

EC50 [1] [nM]	EC50 [2] [nM]	Maximum % activity (with co-corrector) (with co-corrector (2 μM))	Emax (without co-corrector) [%]	EC50 [3] [nM]	EC50 [4] [nM]	Maximum % activity (with co-corrector) [5]	Emax (CSE-HRP, without co-corrector) [%]	Emax [6] [%]	Maximum % activity (with co-corrector) [7]	SMILES
				1000 to 10000	< 1000	+++ (≥350)	> 200			COc1ccc(C(C)(C)C)cc1CN[C@H]1[C@H](C(C)(C)C)[C@@H](C(=O)O)N(C(=O)CC2CC(=O)c3ccccc32)[C@H]1c1ccccc1 (stereo partly drawn) [II-217]
< 1000	< 1000							100 to 200	+++ (≥350)	COc1ccc(C(C)(C)C)cc1CN[C@H]1[C@H](C(C)(C)C)[C@@H](C(=O)O)N(C(=O)c2ccc(OC(F)(F)F)cc2)[C@H]1c1cccnc1N(C)C [II-467]
1000 to 10000	1000 to 10000							> 200	+++ (≥350)	CCc1c(C(=O)N2[C@H](C(=O)O)[C@@H](C(C)(C)C)[C@H](NCc3cc(C(C)(C)C)ccc3OC)[C@@H]2c2ccccc2)c(C)nn1-c1ccc(F)cc1 [II-359]
1000 to 10000	< 1000	+++ (≥350)						> 200		COc1ccc(C(C)(C)C)cc1CN[C@H]1[C@H](C(C)(C)C)[C@@H](C(=O)O)N(C(=O)Cc2ccc(F)cc2F)[C@H]1c1ccccc1 [III-173]
1000 to 10000	1000 to 10000							> 200	+++ (≥350)	COc1ccc(-c2ccccc2)cc1CN[C@H]1[C@H](C(C)(C)C)[C@@H](C(=O)O)N(C(=O)OC(C)C)[C@H]1c1cccnc1N(C)C [II-547]
> 10000	1000 to 10000	++ (≥150 and <350)						< 100		CC(C)(C)[C@H]1[C@H](NCc2ccc(OC(F)(F)F)c(F)c2)[C@H](c2ccccc2)N(C(=O)C2CCCCC2)[C@@H]1C(=O)O [III-128]
1000 to 10000	1000 to 10000							100 to 200	+++ (≥350)	COc1ccc(SC(F)(F)F)cc1CN[C@H]1[C@H](C(C)(C)C)[C@@H](C(=O)O)N(C(=O)C2CCCCC2)[C@H]1c1cccnc1OC [II-527]
1000 to 10000	1000 to 10000							100 to 200	+++ (≥350)	COc1ccc(C(C)(C)C)cc1CN[C@H]1[C@H](C(C)(C)C)[C@@H](C(=O)O)N(C(=O)[C@@H](OC)c2ccc(F)c(F)c2)[C@H]1c1ccccc1 [II-396]

The next lines start with the molecule.

SMILES	EC50 [1] [nM]	EC50 [2] [nM]	Maximum % activity (with co-corrector) (with co-corrector (2 μM))	Emax (without co-corrector) [%]	EC50 [3] [nM]	EC50 [4] [nM]	Maximum % activity (with co-corrector) [5]	Emax (CSE-HRP, without co-corrector) [%]	Emax [6] [%]	Maximum % activity (with co-corrector) [7]
COc1ccc(C(C)(C)C)cc1CN[C@H]1[C@H](C(C)(C)C)[C@@H](C(=O)O)N(C(=O)C2CCC2)[C@H]1c1cccnc1N1CCC1 [Example 102, (2S,3S,4S,5S)-5-[2-(azetidin-1-yl)pyridin-3-yl]-3-tert-butyl-4-{[(5-tert-butyl-2-methoxyphenyl)methyl]amino}-1-(cyclobutanecarbonyl)pyrrolidine-2-carboxylic acid]	1000 to 10000	1000 to 10000	+++ (≥350)	100 to 200						
COc1ccc(C2(C)CCC2)cc1CN[C@H]1[C@H](C(C)(C)C)[C@@H](C(=O)O)N(C(=O)[C@@H]2CCCO2)[C@H]1c1ccccc1C1CC1 [Example 112, (2S,3S,4S,5S)-3-tert-butyl-5-(2-cyclopropylphenyl)-4-({[2-methoxy-5-(1-methylcyclobutyl)phenyl]methyl}amino)-1-[(2S)-oxolane-2-carbonyl]pyrrolidine-2-carboxylic acid]	1000 to 10000	< 1000	+++ (≥350)	> 200						
COc1c(Cl)cccc1CN[C@@H]1[C@@H](C(C)(C)C)[C@H](C(=O)O)N(C(=O)C2CCCCC2)[C@@H]1c1ccccc1 (racemic) [II-7]					1000 to 10000	1000 to 10000	+++ (≥350)	< 100		
COc1ccc(C(C)(C)C)cc1CN[C@@H]1[C@@H](C(C)(C)C)[C@H](C(=O)O)N(C(=O)OC2CCC2)[C@@H]1c1ccccc1 (racemic) [II-90]					1000 to 10000	1000 to 10000	+++ (≥350)	> 200		
COc1ccc(C(F)(F)F)cc1CN[C@H]1[C@H](C(C)(C)C)[C@@H](C(=O)O)N(C(=O)CC2CCCCO2)[C@H]1c1ccccc1 (stereo partly drawn) [Example I-84]	1000 to 10000	1000 to 10000	+++ (≥350)	100 to 200						
COc1ccc(C(C)(C)C)cc1CN[C@H]1[C@H](C(C)(C)C)[C@@H](C(=O)O)N(C(=O)OC(C)C)[C@H]1c1ccccc1 [Example I-81]	1000 to 10000	1000 to 10000	+++ (≥350)	> 200						
CCc1c(C(=O)N2[C@H](C(=O)O)[C@@H](C(C)(C)C)[C@H](NCc3cc(C(C)(C)C)ccc3OC)[C@@H]2c2ccccc2)cnn1-c1ccc(OC)nn1 [Example I-144]	1000 to 10000	1000 to 10000	+++ (≥350)	100 to 200						
COc1ccc(C(C)(C)C)cc1CN[C@@H]1[C@@H](C(C)(C)C)[C@H](C(=O)O)N(C(=O)C2CCCCC2)[C@H]1c1ccccc1 [Example I-173]	1000 to 10000	1000 to 10000	++ (≥150 and <350)	< 100						
Cc1cc(C(F)(F)F)cc(N[C@@H]2[C@@H](C(C)(C)C)[C@H](C(=O)O)N(C(=O)C3CCC4(CC3)CC4)[C@@H]2c2ccccc2)n1 (racemic) [Example I-37]	> 10000	1000 to 10000	++ (≥150 and <350)	< 100						
COc1cc(C(F)(F)F)ccc1CN[C@@H]1[C@@H](C(C)(C)C)[C@H](C(=O)O)N(C(=O)C2CCCCC2)[C@@H]1c1cccnc1N(C)C (racemic) [II-51]					1000 to 10000	1000 to 10000	+++ (≥350)	100 to 200		
COc1ncc(C2CC2)cc1CN[C@H]1[C@H](C(C)(C)C)[C@@H](C(=O)O)N(C(=O)[C@@H]2CCCO2)[C@H]1c1ccccc1C(C)C [Example 101, (2S,3S,4S,5S)-3-tert-butyl-4-{[(5-cyclopropyl-2-methoxypyridin-3-yl)methyl]amino}-1-[(2S)-oxolane-2-carbonyl]-5-[2-(propan-2-yl)phenyl]pyrrolidine-2-carboxylic acid]	1000 to 10000	< 1000	+++ (≥350)	> 200						
COc1ncc(C(F)(F)F)cc1CN[C@H]1[C@H](C(C)(C)C)[C@@H](C(=O)O)N(C(=O)[C@H]2CCCCO2)[C@H]1c1ccccc1C(C)C [Example 85, (2S,3S,4S,5S)-3-tert-butyl-4-({[2-methoxy-5-(trifluoromethyl)pyridin-3-yl]methyl}amino)-1-[(2R)-oxane-2-carbonyl]-5-[2-(propan-2-yl)phenyl]pyrrolidine-2-carboxylic acid]	1000 to 10000	< 1000	+++ (≥350)	> 200						
COc1ncc(C2CC2)cc1CN[C@H]1[C@H](C(C)(C)C)[C@@H](C(=O)O)N(C(=O)C2CCCCC2)[C@H]1c1ccccc1C [Example 105, (2S,3S,4S,5S)-3-tert-butyl-1-(cyclohexanecarbonyl)-4-{[(5-cyclopropyl-2-methoxypyridin-3-yl)methyl]amino}-5-(2-methylphenyl)pyrrolidine-2-carboxylic acid]	1000 to 10000	< 1000	+++ (≥350)	> 200						
